Results on three compounds are retold here after patent US7998973B2 (AVEO Pharmaceuticals, Inc., priority 2009, dated 2011).

Structures are written as SMILES. Where two headings read alike, the source gives them in different places.

For data set [1] the following is noted: cited from earlier work.
A short description of data set [2]: pharmacokinetics in the human body. The data set is classed as in vivo. Conditions: for accumulation: human. The source says:
Serum levels reach steady state after about 2-3 weeks.
Therefore, […] is expected to exert physiological effects after temsirolimus has been cleared.

The next data set concerns the target VEGF receptor 3 (Homo sapiens, UniProt P35916). The settings on record: cited from earlier work.
The conditions of data set [3]: preclinical models; cited from earlier work.
For data set [4] the following is noted: cited from earlier work. The source holds these as a separate data set.

Sequence of VEGF receptor 3 (P35916 25-1363): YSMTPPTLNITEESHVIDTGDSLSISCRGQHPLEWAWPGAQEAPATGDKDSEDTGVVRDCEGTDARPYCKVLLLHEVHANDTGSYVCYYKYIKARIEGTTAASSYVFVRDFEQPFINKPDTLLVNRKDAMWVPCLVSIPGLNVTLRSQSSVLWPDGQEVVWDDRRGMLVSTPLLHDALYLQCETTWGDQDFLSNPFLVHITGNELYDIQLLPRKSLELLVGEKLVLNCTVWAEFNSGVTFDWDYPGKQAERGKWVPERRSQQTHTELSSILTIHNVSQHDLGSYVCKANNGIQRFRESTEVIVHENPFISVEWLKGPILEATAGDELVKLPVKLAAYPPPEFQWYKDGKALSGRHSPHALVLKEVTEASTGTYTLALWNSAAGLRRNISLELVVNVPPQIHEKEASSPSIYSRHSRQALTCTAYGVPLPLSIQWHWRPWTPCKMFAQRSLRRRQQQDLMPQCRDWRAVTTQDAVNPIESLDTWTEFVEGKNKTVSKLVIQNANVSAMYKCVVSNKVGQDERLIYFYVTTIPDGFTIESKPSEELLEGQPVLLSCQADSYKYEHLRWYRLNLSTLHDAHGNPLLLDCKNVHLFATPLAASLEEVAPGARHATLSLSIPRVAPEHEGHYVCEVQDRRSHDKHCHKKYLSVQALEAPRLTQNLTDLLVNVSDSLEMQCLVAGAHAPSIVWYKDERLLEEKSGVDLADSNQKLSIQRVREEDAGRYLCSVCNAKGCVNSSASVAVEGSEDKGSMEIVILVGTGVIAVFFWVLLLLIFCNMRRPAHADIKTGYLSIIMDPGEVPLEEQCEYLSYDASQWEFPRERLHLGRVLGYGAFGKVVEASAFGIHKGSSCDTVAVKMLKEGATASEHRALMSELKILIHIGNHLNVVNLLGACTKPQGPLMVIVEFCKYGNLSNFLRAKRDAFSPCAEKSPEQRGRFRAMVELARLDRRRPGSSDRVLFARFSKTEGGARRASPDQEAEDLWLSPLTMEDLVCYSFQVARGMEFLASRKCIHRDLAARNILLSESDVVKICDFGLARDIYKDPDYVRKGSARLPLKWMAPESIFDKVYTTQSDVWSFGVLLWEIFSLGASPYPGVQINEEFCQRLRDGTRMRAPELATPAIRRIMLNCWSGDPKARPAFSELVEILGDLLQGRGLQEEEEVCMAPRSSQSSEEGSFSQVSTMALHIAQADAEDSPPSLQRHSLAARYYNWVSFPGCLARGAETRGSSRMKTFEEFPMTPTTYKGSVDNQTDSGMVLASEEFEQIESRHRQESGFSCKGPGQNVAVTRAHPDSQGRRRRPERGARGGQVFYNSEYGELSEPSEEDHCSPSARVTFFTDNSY

In the case of `CO[C@H]1C[C@@H]2CC[C@@H](C)[C@@](O)(O2)C(=O)C(=O)N2CCCC[C@H]2C(=O)O[C@H]([C@H](C)C[C@@H]2CC[C@@H](O)[C@H](OC)C2)CC(=O)[C@H](C)/C=C(\C)[C@@H](O)[C@@H](OC)C(=O)[C@H](C)C[C@H](C)/C=C/C=C/C=C/1C` [sirolimus], the “half-life relative to parent compound temsirolimus” value in data set [1] (primary metabolite of temsirolimus) is “about three times that of the parent compound”.
Broadly, the half-life is how long it takes for the measured level to halve. Take `CO[C@H]1C[C@@H]2CC[C@@H](C)[C@@](O)(O2)C(=O)C(=O)N2CCCC[C@H]2C(=O)O[C@H]([C@H](C)C[C@@H]2CC[C@@H](OC(=O)C(C)(CO)CO)[C@H](OC)C2)CC(=O)[C@H](C)/C=C(\C)[C@@H](O)[C@@H](OC)C(=O)[C@H](C)C[C@H](C)/C=C/C=C/C=C/1C` [temsirolimus, 42-(3-hydroxy-2-(hydroxymethyl)-2-methylpropanoate) rapamycin]: in data set [1] (human body), the half-life entry is “approximately 17 hours”. Moreover, in data set [2], the accumulation entry is on record as “does not appear to accumulate more than would be expected based on its half life”.
For the compound `COc1cc2nccc(Oc3ccc(NC(=O)Nc4cc(C)on4)c(Cl)c3)c2cc1OC` [tivozanib, N-{2-chloro-4-[(6,7-dimethoxy-4-quinolyl)oxy]-phenyl}-N′-(5-methyl-3-isoxazolyl)urea], on VEGF receptor 3, the inhibitory activity result was “picomolar inhibitory activity”. Also, the antitumor activity result in data set [3] is “exhibits antitumor activity”. Moreover, the interim results in data set [4] (272-patient Phase 2 clinical trial) was “positive interim results”. Besides, the “most common side effects” value in data set [4] (Phase 1 and Phase 2 clinical trials) is “hypertension and dysphonia”. Also, the “dose at which safety had been established” value in data set [4] (previous trials, 4 weeks on, 2 weeks off or 3 weeks on, 1 week off) is recorded as 1.5 mg/day. For the same compound, in data set [2] (chronic dosing), the “time for serum levels to reach steady state” value is on record as 2-3 weeks. For the same compound, the accumulation result in data set [2] is on record as “accumulates in the serum after chronic dosing to a degree that would be expected based on its half-life”. Besides, in data set [2] (serum, human body), the half-life was 91.2 to 113 h.
